From BigSolDB 2.1

NC(=O)C[C@H](N)C(=O)O.O
solubility (mole fraction)
Conditions	278.15 K	283.15 K	288.15 K	293.15 K	298.15 K	303.15 K	308.15 K	313.15 K	318.15 K	323.15 K
in methyl acetate	1.66e-05	2.23e-05	2.91e-05	3.78e-05	4.89e-05	6.28e-05	7.98e-05	0.000101	0.000127	0.000158
in n-butanol	1.07e-05	1.43e-05	1.9e-05	2.5e-05	3.26e-05	4.2e-05	5.38e-05	6.84e-05	8.62e-05	0.000105
in n-butyl acetate	1.57e-05	2.09e-05	2.7e-05	3.49e-05	4.54e-05	5.76e-05	7.24e-05	9.16e-05	0.000114	0.000142
in n-propanol	1.07e-05	1.45e-05	1.94e-05	2.57e-05	3.37e-05	4.4e-05	5.68e-05	7.28e-05	9.28e-05	0.000117
in n-propyl acetate	1.63e-05	2.14e-05	2.81e-05	3.66e-05	4.76e-05	6.11e-05	7.78e-05	9.84e-05	0.000121	0.000154
in water	0.0014	0.00178	0.00227	0.0028	0.00344	0.00422	0.00518	0.00627	0.0076	0.00914
